ChEMBL document CHEMBL3352801, “Synthesis and lipid-lowering evaluation of 3-methyl-1H-purine-2,6-dione derivatives as potent and orally available anti-obesity agents” (Eur J Med Chem, 2014)

Tests used:
Mus musculus [1] = test: Toxicity in diet-induced obese C57Bl/6 mouse assessed as change in food intake at 150 mg/kg/day, po for 4 weeks administered with high-fat diet; type: organism-based; set-up: route oral; details: in vivo, 672 h
Mus musculus [2] = test: Toxicity in diet-induced obese C57Bl/6 mouse assessed as change in ALT level at 150 mg/kg/day, po for 4 weeks administered with high-fat diet (reference value: 33.00 +/- 18.23 U/L); type: organism-based; set-up: route oral; details: in vivo, 672 h
Mus musculus [3] = test: Toxicity in diet-induced obese C57Bl/6 mouse assessed as change in AST level at 150 mg/kg/day, po for 4 weeks administered with high-fat diet (reference value: 125.00 +/- 35.00 U/L); type: organism-based; set-up: route oral; details: in vivo, 672 h
Mus musculus [4] = test: Toxicity in diet-induced obese C57Bl/6 mouse assessed as change in ALT level at 150 mg/kg/day, po for 4 weeks administered with high-fat diet (reference value: 29.6 +/- 8.29 U/L); type: organism-based; set-up: route oral; details: in vivo, 672 h
Mus musculus [5] = test: Toxicity in diet-induced obese C57Bl/6 mouse assessed as change in AST level at 150 mg/kg/day, po for 4 weeks administered with high-fat diet (reference value: 128.00 +/- 20.59 U/L); type: organism-based; set-up: route oral; details: in vivo, 672 h
Mus musculus [6] = test: Antiobesity activity in diet-induced obese C57Bl/6 mouse assessed as reduction in body weight at 50 mg/kg/day, po for 4 weeks administered with high-fat diet; type: functional; set-up: scale not given: the % may be the effect or the level left
Mus musculus [7] = test: Antiobesity activity in diet-induced obese C57Bl/6 mouse assessed as loss of liver weight at 50 mg/kg/day, po for 4 weeks administered with high-fat diet; type: functional
Mus musculus [8] = test: Antiobesity activity in diet-induced obese C57Bl/6 mouse assessed as loss of liver weight at 150 mg/kg/day, po for 4 weeks administered with high-fat diet; type: functional
Mus musculus [9] = test: Antiobesity activity in diet-induced obese C57Bl/6 mouse assessed as loss of epididymal fat mass at 50 mg/kg/day, po for 4 weeks administered with high-fat diet; type: functional
Mus musculus [10] = test: Antiobesity activity in diet-induced obese C57Bl/6 mouse assessed as loss of epididymal fat mass at 150 mg/kg/day, po for 4 weeks administered with high-fat diet; type: functional
Mus musculus [11] = test: Antiobesity activity in diet-induced obese C57Bl/6 mouse assessed as reduction in hepatic triglyceride level at 50 mg/kg/day, po for 4 weeks administered with high-fat diet by Oil Red O staining-based histological method; type: functional; set-up: scale not given: the % may be the effect or the level left
[12] = Cmax in Sprague-Dawley rat at 5 mg/kg, iv; type: ADME, organism-based; set-up: dose 5 mg/kg, route intravenous; details: in vivo
[13] = Tmax in Sprague-Dawley rat at 5 mg/kg, iv; type: ADME, organism-based; set-up: dose 5 mg/kg, route intravenous; details: in vivo
[14] = Half life in Sprague-Dawley rat at 5 mg/kg, iv; type: ADME, organism-based; set-up: dose 5 mg/kg, route intravenous; details: in vivo
[15] = AUC (0 to t) in Sprague-Dawley rat at 5 mg/kg, iv; type: ADME, organism-based; set-up: dose 5 mg/kg, route intravenous; details: plasma
[16] = Volume of distribution in Sprague-Dawley rat at 5 mg/kg, iv; type: ADME, organism-based; set-up: dose 5 mg/kg, route intravenous; details: in vivo
[17] = Total clearance in Sprague-Dawley rat at 5 mg/kg, iv; type: ADME, organism-based; set-up: dose 5 mg/kg, route intravenous; details: in vivo
[18] = Cmax in Sprague-Dawley rat at 20 mg/kg, po; type: ADME, organism-based; set-up: dose 20 mg/kg, route oral; details: in vivo
[19] = Tmax in Sprague-Dawley rat at 20 mg/kg, po; type: ADME, organism-based; set-up: dose 20 mg/kg, route oral; details: in vivo
[20] = Half life in Sprague-Dawley rat at 20 mg/kg, po; type: ADME, organism-based; set-up: dose 20 mg/kg, route oral; details: in vivo
[21] = AUC (0 to t) in Sprague-Dawley rat at 20 mg/kg, po; type: ADME, organism-based; set-up: dose 20 mg/kg, route oral; details: plasma
Rattus norvegicus = test: Volume of distribution in Sprague-Dawley rat at 20 mg/kg, po; type: ADME, organism-based; set-up: dose 20 mg/kg, route oral; details: in vivo
[22] = Total clearance in Sprague-Dawley rat at 20 mg/kg, po; type: ADME, organism-based; set-up: dose 20 mg/kg, route oral; details: in vivo
[23] = Oral bioavailability in Sprague-Dawley rat at 20 mg/kg; type: ADME, organism-based; details: in vivo
[24] = Solubility of the compound at room temperature; type: physicochemical
Mus musculus [25] = test: Antiobesity activity in diet-induced obese C57Bl/6 mouse assessed as reduction in body weight at 20 mg/kg/day, po for 4 weeks administered with high-fat diet; type: functional; set-up: scale not given: the % may be the effect or the level left
Mus musculus [26] = test: Toxicity in diet-induced obese C57Bl/6 mouse assessed as change in food intake at 20 mg/kg/day, po for 4 weeks administered with high-fat diet; type: organism-based; set-up: route oral; details: in vivo, 672 h
Mus musculus [27] = test: Antiobesity activity in diet-induced obese C57Bl/6 mouse assessed as loss of liver weight at 20 mg/kg/day, po for 4 weeks administered with high-fat diet; type: functional
Mus musculus [28] = test: Antiobesity activity in diet-induced obese C57Bl/6 mouse assessed as loss of epididymal fat mass at 20 mg/kg/day, po for 4 weeks administered with high-fat diet; type: functional
Mus musculus [29] = test: Antiobesity activity in diet-induced obese C57Bl/6 mouse assessed as reduction in fasting blood glucose at 20 mg/kg/day, po for 4 weeks administered with high-fat diet (reference value: 4.88 +/- 0.75 mM); type: functional
Mus musculus [30] = test: Antiobesity activity in diet-induced obese C57Bl/6 mouse assessed as change in insulin level at 20 mg/kg/day, po for 4 weeks administered with high-fat diet (reference value: 4.31 +/- .82 mU); type: functional
Mus musculus [31] = test: Toxicity in diet-induced obese C57Bl/6 mouse assessed as change in ALT level at 20 mg/kg/day, po for 4 weeks administered with high-fat diet (reference value: 29.6 +/- 8.29 U/L); type: organism-based; set-up: route oral; details: in vivo, 672 h
Mus musculus [32] = test: Toxicity in diet-induced obese C57Bl/6 mouse assessed as change in AST level at 20 mg/kg/day, po for 4 weeks administered with high-fat diet (reference value: 128.00 +/- 20.59 U/L); type: organism-based; set-up: route oral; details: in vivo, 672 h
Mus musculus [33] = test: Antiobesity activity in diet-induced obese C57Bl/6 mouse assessed as reduction in triglyceride level at 20 mg/kg/day, po for 4 weeks administered with high-fat diet (reference value: 0.96 +/- 0.14 mM); type: functional
Mus musculus [34] = test: Antiobesity activity in diet-induced obese C57Bl/6 mouse assessed as reduction in LDL level at 20 mg/kg/day, po for 4 weeks administered with high-fat diet (reference value: 0.13 +/- 0.02 mM); type: functional
Mus musculus [35] = test: Antiobesity activity in diet-induced obese C57Bl/6 mouse assessed as increase in HDL level at 20 mg/kg/day, po for 4 weeks administered with high-fat diet (reference value: 1.02 +/- 0.13 mM); type: functional
Mus musculus [36] = test: Antiobesity activity in diet-induced obese C57Bl/6 mouse assessed as reduction in FFA level at 20 mg/kg/day, po for 4 weeks administered with high-fat diet (reference value: 25.07 +/- 3.49 ng/L); type: functional
Mus musculus [37] = test: Antiobesity activity in diet-induced obese C57Bl/6 mouse assessed as reduction in HOMA-IR value at 20 mg/kg/day, po for 4 weeks administered with high-fat diet (reference value: 0.94 +/- 0.23 no_unit); type: functional
Mus musculus [38] = test: Antiobesity activity in diet-induced obese C57Bl/6 mouse assessed as reduction in fasting blood glucose at 50 mg/kg/day, po for 4 weeks administered with high-fat diet (reference value: 4.88 +/- 0.75 mM); type: functional
Mus musculus [39] = test: Antiobesity activity in diet-induced obese C57Bl/6 mouse assessed as change in insulin level at 50 mg/kg/day, po for 4 weeks administered with high-fat diet (reference value: 4.31 +/- .82 mU); type: functional
Mus musculus [40] = test: Toxicity in diet-induced obese C57Bl/6 mouse assessed as change in ALT level at 50 mg/kg/day, po for 4 weeks administered with high-fat diet (reference value: 29.6 +/- 8.29 U/L); type: organism-based; set-up: route oral; details: in vivo, 672 h
Mus musculus [41] = test: Toxicity in diet-induced obese C57Bl/6 mouse assessed as change in AST level at 50 mg/kg/day, po for 4 weeks administered with high-fat diet (reference value: 128.00 +/- 20.59 U/L); type: organism-based; set-up: route oral; details: in vivo, 672 h
Mus musculus [42] = test: Antiobesity activity in diet-induced obese C57Bl/6 mouse assessed as reduction in triglyceride level at 50 mg/kg/day, po for 4 weeks administered with high-fat diet (reference value: 0.96 +/- 0.14 mM); type: functional
Mus musculus [43] = test: Antiobesity activity in diet-induced obese C57Bl/6 mouse assessed as reduction in LDL level at 50 mg/kg/day, po for 4 weeks administered with high-fat diet (reference value: 0.13 +/- 0.02 mM); type: functional
Mus musculus [44] = test: Antiobesity activity in diet-induced obese C57Bl/6 mouse assessed as increase in HDL level at 50 mg/kg/day, po for 4 weeks administered with high-fat diet (reference value: 1.02 +/- 0.13 mM); type: functional
Mus musculus [45] = test: Antiobesity activity in diet-induced obese C57Bl/6 mouse assessed as reduction in FFA level at 50 mg/kg/day, po for 4 weeks administered with high-fat diet (reference value: 25.07 +/- 3.49 ng/L); type: functional
Mus musculus [46] = test: Antiobesity activity in diet-induced obese C57Bl/6 mouse assessed as reduction in HOMA-IR value at 50 mg/kg/day, po for 4 weeks administered with high-fat diet (reference value: 0.94 +/- 0.23 no_unit); type: functional
Mus musculus [47] = test: Antiobesity activity in diet-induced obese C57Bl/6 mouse assessed as reduction in hepatic triglyceride level at 20 mg/kg/day, po for 4 weeks administered with high-fat diet by Oil Red O staining-based histological method; type: functional; set-up: scale not given: the % may be the effect or the level left

CN(C)C(=N)N=C(N)N [METFORMIN]
Activity (Mus musculus [1]): Non-toxic | Activity (Mus musculus [2]): 21.67 U/L | Activity (Mus musculus [3]): 110 U/L | Activity (Mus musculus [4]): 46.29 U/L | Activity (Mus musculus [5]): 172 U/L

CCn1c(-c2ccc(OCCN(C)c3ccccn3)cc2)nc2c1c(=O)n(Cc1ccccc1C#N)c(=O)n2C.Cl
Activity (Mus musculus [6]): 15.08% | Activity (Mus musculus [7]): 22.67% | Activity (Mus musculus [8]): 22% | Activity (Mus musculus [9]): 56.2% | Activity (Mus musculus [10]): 9.92% | Activity (Mus musculus [11]): 21.59% | Cmax [12]: 1740 ng/mL | Tmax [13]: 4.98 min | half-life [14]: 5.82 h | AUC(0-t) [15]: 1780 ng·h/mL | Vd [16]: 23.6 L/kg | clearance [17]: 47.1 mL/min/kg | Cmax [18]: 465 ng/mL | Tmax [19]: 2.79 h | half-life [20]: 6.97 h | AUC(0-t) [21]: 4190 ng·h/mL | Vd (Rattus norvegicus): 67.208 L/kg | CL/F [22]: 139 mL/min/kg | bioavailability [23]: 58.9% | solubility [24]: 3280 µg/mL | Activity (Mus musculus [25]): 12.86% | Activity (Mus musculus [26]): Non-toxic | Activity (Mus musculus [27]): 20% | Activity (Mus musculus [28]): 18.18% | Activity (Mus musculus [29]): 8.42 mM | Activity (Mus musculus [30]): 7.48 mU | Activity (Mus musculus [31]): 24 U/L | Activity (Mus musculus [32]): 125.71 U/L | Activity (Mus musculus [33]): 1.25 mM | Activity (Mus musculus [34]): 0.22 mM | Activity (Mus musculus [35]): 1.31 mM | Activity (Mus musculus [36]): 26.8 ng/L | Activity (Mus musculus [37]): 2.98 | Activity (Mus musculus [38]): 7.76 mM | Activity (Mus musculus [39]): 4.76 mU | Activity (Mus musculus [40]): 18.86 U/L | Activity (Mus musculus [41]): 131.43 U/L | Activity (Mus musculus [42]): 0.94 mM | Activity (Mus musculus [43]): 0.17 mM | Activity (Mus musculus [44]): 1.38 mM | Activity (Mus musculus [45]): 25.73 ng/L | Activity (Mus musculus [46]): 1.59 | Activity (Mus musculus [47]): 16.8%
